Reference: US20230065740A1, “CYCLIN-DEPENDENT KINASE INHIBITORS” (SPV THERAPEUTICS INC., priority 2018, published 2023)
pIC50: −log10 of the molar value. Read-outs that look alike come from different tables or passages of the source.

Tests used:
CDK6-CYCLIND3 = target: T1, CDK6-CYCLIND3 (Homo sapiens, UniProt Q00534); experiment: Microfluidic LabChip kinase inhibition assay, CDK6-CyclinD3; format: biochemical; settings: 300 μM ATP
T1 construct: purchased Carna

CDK4-CYCLIND1 = CDK4-CYCLIND1 (Homo sapiens, UniProt P11802); experiment: Microfluidic LabChip kinase inhibition assay, CDK4-CyclinD1; settings: 200 μM ATP
Description: Inhibition assays were performed using microfluidic LabChip 300 Drug Discovery System from Caliper Life Sciences. […] The assay has a total volume of 10 μL consisting of 5 μL of enzyme and buffer and 5 μL of substrate and buffer. The test compounds were diluted in 100% dimethylsulfoxide (DMSO) using 3-fold dilution steps. […] Compounds were tested in a single well for each dilution and the final concentration of DMSO was maintained at 1%.
The assay buffer contained 100 mM HEPES, pH 7.5, 0.01% Triton X-100, 0.1% bovine serum albumin (BSA), 5 mM MgCl2; 1 mM dithiothreitol (DTT), 10 μM sodium orthovanadate, and 10 μM β-glycerophosphate.
The assay was conducted by adding 5 μL of enzyme, adenosine triphosphate (ATP) and buffer to an assay plate. A 100 nL aliquot of the diluted compounds were added to the plate. The assay was initiated by the addition of 5 μL of phosphoenolpyruvate substrate (PEP) in buffer. […] The reaction was terminated by the addition of EDTA. The plates were analyzed using a Caliper LabChip 3000.

[1] = Table 2, 2 nM enzyme, read-out: CDK6 IC50
[2] = CDK4 IC50 (μM), Table 2, 1 nM enzyme

T1 sequence (Q00534 whole entry): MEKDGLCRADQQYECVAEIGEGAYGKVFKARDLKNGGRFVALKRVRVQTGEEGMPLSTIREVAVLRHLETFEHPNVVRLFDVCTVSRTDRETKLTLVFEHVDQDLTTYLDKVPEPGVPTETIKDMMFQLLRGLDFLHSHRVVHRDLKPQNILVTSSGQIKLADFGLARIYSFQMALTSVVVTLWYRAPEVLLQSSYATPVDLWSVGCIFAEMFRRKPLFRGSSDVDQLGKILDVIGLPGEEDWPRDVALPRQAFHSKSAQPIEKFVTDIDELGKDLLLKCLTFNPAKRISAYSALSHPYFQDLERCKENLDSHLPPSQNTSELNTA
T1 sequence (P30281 whole entry partner): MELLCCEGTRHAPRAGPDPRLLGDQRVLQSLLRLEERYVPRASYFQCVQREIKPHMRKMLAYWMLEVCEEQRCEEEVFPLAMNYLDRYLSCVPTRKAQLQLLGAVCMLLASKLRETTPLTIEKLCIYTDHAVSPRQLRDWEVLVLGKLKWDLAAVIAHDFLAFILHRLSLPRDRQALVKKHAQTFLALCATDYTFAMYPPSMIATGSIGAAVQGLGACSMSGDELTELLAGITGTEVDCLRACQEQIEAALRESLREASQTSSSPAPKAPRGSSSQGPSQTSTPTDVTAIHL
Chain of CDK4-CYCLIND1 (P11802 whole entry): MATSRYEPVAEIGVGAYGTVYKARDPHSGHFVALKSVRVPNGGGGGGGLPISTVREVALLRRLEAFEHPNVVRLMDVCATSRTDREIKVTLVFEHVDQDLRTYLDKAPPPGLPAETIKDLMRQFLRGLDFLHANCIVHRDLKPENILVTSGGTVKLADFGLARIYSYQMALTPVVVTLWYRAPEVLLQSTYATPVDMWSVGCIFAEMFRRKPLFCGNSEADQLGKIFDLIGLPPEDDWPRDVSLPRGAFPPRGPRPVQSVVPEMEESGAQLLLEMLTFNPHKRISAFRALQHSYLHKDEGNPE
Chain of CDK4-CYCLIND1 (P24385 whole entry partner): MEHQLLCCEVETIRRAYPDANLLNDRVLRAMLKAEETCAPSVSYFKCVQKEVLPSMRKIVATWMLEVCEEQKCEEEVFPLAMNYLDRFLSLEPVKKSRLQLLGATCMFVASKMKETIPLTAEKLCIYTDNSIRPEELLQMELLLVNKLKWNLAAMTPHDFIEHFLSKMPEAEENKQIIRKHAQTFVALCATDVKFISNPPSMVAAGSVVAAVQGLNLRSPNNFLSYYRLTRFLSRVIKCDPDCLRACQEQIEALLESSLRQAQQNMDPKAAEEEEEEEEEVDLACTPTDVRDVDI

Row | SMILES | pIC50 (CDK6-CYCLIND3; [1]) | IC50 (CDK4-CYCLIND1; [2]) | also measured
1 | CN1CCN(c2ccc(Nc3ncc4c(n3)N(C3CCCC3)C3(CC(=O)NC3=O)C4)cc2)CC1 (stereo not drawn) [Compound C78, 7-cyclopentyl-2′-((4(4-methylpiperazin-1-yl)phenyl)amino)-5′,7′-dihydrospiro[pyrrolidine-3,6′-pyrrolo[2,3-d]pyrimidine]-2,5-dione] | 6.46 | 0.0667 µM | 
2 | CN(C)CCOc1ccc(Nc2ncc3c(n2)N(C2CCCC2)C2(CCN(C)C2=O)C3)nc1 (stereo not drawn) [Compound C4, 7′-cyclopentyl-2′-((5-(2-(dimethylamino)ethoxy)pyridin-2-yl)amino)-1-methyl-5′,7′-dihydrospiro[pyrrolidine-3,6′-pyrrolo[2,3-d]pyrimidin]-2-one] | < 4.52 | > 30 µM | 
3 | CN1CCN(c2ccc(Nc3ncc4c(n3)N(C3CCCC3)C3(CCNC3=O)C4)c(F)c2)CC1 (stereo not drawn) [Compound C51, 7′-cyclopentyl-2′-((2-fluoro-4-(4-methylpiperazin-1-yl)phenyl)amino)-5′,7′-dihydrospiro[pyrrolidine-3,6′-pyrrolo[2,3-d]pyrimidin]-2-one] | < 4.52 | > 30 µM | 
4 | CN1CCC2(Cc3cnc(Nc4ccc(OCCN5CCCCC5)cn4)nc3N2C2CCCC2)C1=O (stereo not drawn) [Compound C6, 7′-cyclopentyl 1-methyl-2′-((5-(2-(piperidin-1-yl)ethoxy)pyridin-2-yl)amino)-5′,7′-dihydrospiro[pyrrolidine-3,6′-pyrrolo[2,3-d]pyrimidin]-2-one] | < 4.52 | > 30 µM | 
5 | CN1CCN(c2ccc(Nc3ncc4c(n3)N(C3CCCC3)C3(CCCN(Cc5ccccc5)C3=O)C4)cc2F)CC1 (stereo not drawn) [Compound C40, 1-benzyl-7′-cyclopentyl-2′-((3-fluoro-4-(4-methylpiperazin-1-yl)phenyl)amino)-5′,7′-dihydrospiro[piperidine-3,6′-pyrrolo[2,3-d]pyrimidin]-2-one] | 4.97 | 2.96 µM | 
6 | CN1CCN(c2ccc(Nc3ncc4c(n3)N(C3CCCC3)C(=O)C43CCNC3=O)cc2)CC1 (stereo not drawn) [Compound C101, 7′-cyclopentyl-2′-((4-(4-methylpiperazin-1-yl)phenyl)amino)spiro[pyrrolidine-3,5′-pyrrolo[2,3-d]pyrimidine]-2,6′(7′H)-dione] | 4.36 | 21 µM | 
7 | CN1CCN(c2ccc(Nc3ncc4c(n3)N(C3CCCC3)C3(CCNC3=O)C4)cc2)CC1 (stereo not drawn) [Compound C45, 7′-cyclopentyl-2′-((4-(4-methylpiperazin-1-yl)phenyl)amino)-5′,7′-dihydrospiro[pyrrolidine-3,6′-pyrrolo[2,3-d]pyrimidin]-2-one] | 6.24 | 0.105 µM | 
8 | CN1CCCC2(Cc3cnc(Nc4ccc(OCCN5CCCCC5)cn4)nc3N2C2CCCC2)C1=O (stereo not drawn) [Compound C11, 7′-cyclopentyl-1-methyl-2′-((5-(2-(piperidin-1-yl)ethoxy)pyridin-2-yl)amino)-5′,7′-dihydrospiro[piperidine-3,6′-pyrrolo[2,3-d]pyrimidin]-2-one] | < 4.52 | > 30 µM | 
9 | CN1CCN(c2ccc(Nc3ncc4c(n3)N(C3CCCC3)C3(CC(=O)N(C)C3=O)C4)cc2F)CC1 (stereo not drawn) [Compound C72, 7′-cyclopentyl-2′-((3-fluoro-4-(4-methylpiperazin-1-yl)phenyl)amino)-1-methyl-5′,7′-dihydrospiro[pyrrolidine-3,6′-pyrrolo[2,3-d]pyrimidine]-2,5-dione] | 4.86 | 2.53 µM | 
10 | CC(C)N1CCN(c2ccc(Nc3ncc4c(n3)N(C3CCCC3)C3(CCN(C)C3=O)C4)nc2)CC1 (stereo not drawn) [Compound C3, 7′-cyclopentyl-2′-((5-(4-isopropylpiperazin-1-yl)pyridin-2-yl)amino)-1-methyl-5′,7′-dihydrospiro[pyrrolidine-3,6′-pyrrolo[2,3-d]pyrimidin]-2-one] | < 4.52 | > 30 µM | 
11 | CC(C)N1CCN(c2ccc(Nc3ncc4c(n3)N(C3CCCC3)C3(CC(=O)NC3=O)C4)cc2F)CC1 (stereo not drawn) [Compound C82, 7′-cyclopentyl-2′-((3-fluoro-4-(4-isopropylpiperazin-1-yl)phenyl)amino)-5′,7′-dihydrospiro[pyrrolidine-3,6′-pyrrolo[2,3-d]pyrimidine]-2,5-dione] | 6.91 | 0.0222 µM | 
12 | O=C1N(Cc2ccccc2)CCCC12Cc1cnc(Nc3ccc(N4CCNCC4)cn3)nc1N2C1CCCC1 (stereo not drawn) [Compound C27, 1-benzyl-7′-cyclopentyl-2′-((5-(piperazin-1-yl)pyridin-2-yl)amino)-5′,7′-dihydrospiro[piperidine-3,6′-pyrrolo[2,3-d]pyrimidin]-2-one] | < 4.52 | > 30 µM | 
13 | CN1CCN(c2ccc(Nc3ncc4c(n3)N(C3CCCCC3)C3(CCNC3=O)C4)nc2)CC1 (stereo not drawn) [Compound C202, 7′-cyclohexyl-2′-((5-(4-methylpiperazin-1-yl)pyridin-2-yl)amino)-5′,7′-dihydrospiro[pyrrolidine-3,6′-pyrrolo[2,3-d]pyrimidin]-2-one] |  |  | pIC50 (CDK6-CYCLIND3; Table 3a, read-out: CDK6 CyclinD3 IC50): 6.15; pIC50 (CDK6-CYCLIND3; Table 3b, read-out: CDK6 CyclinD3 IC50): 6.15; IC50 (CDK4-CYCLIND1; CDK4 CyclinD1 IC50 (μM), Table 3a, second value in parentheses on the next line): 0.368 µM; IC50 (CDK4-CYCLIND1; CDK4 CyclinD1 IC50 (μM), Table 3b, second value in parentheses on the next line): 0.368 µM
14 | COc1ccc(CN2CCC3(Cc4cnc(Nc5cc(C(F)(F)F)c(N6CCNCC6)cn5)nc4N3C3CCCC3)C2=O)cc1 (stereo not drawn) [Compound C16, 7′-cyclopentyl-1-(4-methoxybenzyl)-2′-((5-(piperazin-1-yl)-4-(trifluoromethyl)pyridin-2-yl)amino)-5′,7′-dihydrospiro[pyrrolidine-3,6′-pyrrolo[2,3-d]pyrimidin]-2-one] | < 4.52 | 13.1 µM | 
15 | CC(C)N1CCN(c2ccc(Nc3ncc4c(n3)N(C3CCCC3)C3(CC(=O)N(C)C3=O)C4)cc2F)CC1 (stereo not drawn) [Compound C73, 7′-cyclopentyl-2′-((3-fluoro-4-(4-isopropylpiperazin-1-yl)phenyl)amino)-1-methyl-5′,7′-dihydrospiro[pyrrolidine-3,6′-pyrrolo[2,3-d]pyrimidine]-2,5-dione] | 5.01 | 1.94 µM | 
16 | COc1ccc(CN2CCC3(Cc4cnc(Nc5ccc(N6CCN(C)CC6)cc5)nc4N3C3CCCC3)C2=O)cc1 (stereo not drawn) [Compound C12, 7′-cyclopentyl-1-(4-methoxybenzyl)-2′-((4-(4-methylpiperazin-1-yl)phenyl)amino)-5′,7′-dihydrospiro[pyrrolidine-3,6′-pyrrolo[2,3-d]pyrimidin]-2-one] | < 4.52 | 1.96 µM | 
17 | CN1CCCC2(Cc3cnc(Nc4ccc(OCCN5CCCC5)cn4)nc3N2C2CCCC2)C1=O (stereo not drawn) [Compound C10, 7′-cyclopentyl-1-methyl-2′-((5-(2-(pyrrolidin-1-yl)ethoxy)pyridin-2-yl)amino)-5′,7′-dihydrospiro[piperidine-3,6′-pyrrolo[2,3-d]pyrimidin]-2-one] | < 4.52 | > 30 µM | 
18 | CN(C)CCOc1ccc(Nc2ncc3c(n2)N(C2CCCC2)C2(CCNC2=O)C3)cc1 (stereo not drawn) [Compound C59, 7′-cyclopentyl-2′-((4-(2-(dimethylamino)ethoxy)phenyl)amino)-5′,7′-dihydrospiro[pyrrolidine-3,6′-pyrrolo[2,3-d]pyrimidin]-2-one] | 6.20 | 0.142 µM | 

Second part, led by results:

Row | pIC50 (CDK6-CYCLIND3; [1]) | IC50 (CDK4-CYCLIND1; [2]) | SMILES | also measured
19 | 5.68 | 0.694 µM | O=C1NCCC12Cc1cnc(Nc3ccc(N4CCNCC4)cn3)nc1N2C1CCCC1 (stereo not drawn) [Compound C33, 7′-cyclopentyl-2′-((5-(piperazin-1-yl)pyridin-2-yl)amino)-5′,7′-dihydrospiro[pyrrolidine-3,6′-pyrrolo[2,3-d]pyrimidin]-2-one] | 
20 | 5.55 | 1.08 µM | CN1CCN(c2ccc(Nc3ncc4c(n3)N(C3CCCC3)C3(CC(=O)N(C)C3=O)C4)cc2)CC1 (stereo not drawn) [Compound C69, 7′-cyclopentyl-1-methyl-2′-((4-(4-methylpiperazin-1-yl)phenyl)amino)-5′,7′-dihydrospiro[pyrrolidine-3,6′-pyrrolo[2,3-d]pyrimidine]-2,5-dione] | 
21 | 4.50 | 6.84 µM | O=C1CC2(Cc3cnc(Nc4ccc(C5=CCNCC5)cn4)nc3N2C2CCCC2)C(=O)N1 (stereo not drawn) [Compound C93, 7′-cyclopentyl-2′-((1′,2′,3′,6′-tetrahydro-[3,4′-bipyridin]-6-yl)amino)-5′,7′-dihydrospiro[pyrrolidine-3,6′-pyrrolo[2,3-d]pyrimidine]-2,5-dione] | 
22 | < 4.52 | > 30 µM | CC(C)N1CCN(c2ccc(Nc3ncc4c(n3)N(C3CCCC3)C3(CCCN(C)C3=O)C4)nc2)CC1 (stereo not drawn) [Compound C9, 7′-cyclopentyl-2′-((5-(4-isopropylpiperazin-1-yl)pyridin-2-yl)amino)-1-methyl-5′,7′-dihydrospiro[piperidine-3,6′-pyrrolo[2,3-d]pyrimidin]-2-one] | 
23 | 6.25 | 0.143 µM | CN(C)CCOc1ccc(Nc2ncc3c(n2)N(C2CCCC2)C2(CC(=O)NC2=O)C3)cc1 (stereo not drawn) [Compound C89, 7′-cyclopentyl-2′-((4-(2-(dimethylamino)ethoxy)phenyl)amino)-5′,7′-dihydrospiro[pyrrolidine-3,6′-pyrrolo[2,3-d]pyrimidine]-2,5-dione] | 
24 | 6.37 | 0.0633 µM | O=C1NCCC12Cc1cnc(Nc3ccc(N4CCNCC4)cc3)nc1N2C1CCCC1 (stereo not drawn) [Compound C43, 7′-cyclopentyl-2′-((4-(piperazin-1-yl)phenyl)amino)-5′,7′-dihydrospiro[pyrrolidine-3,6′-pyrrolo[2,3-d]pyrimidin]-2-one] | 
25 | < 4.52 | > 30 µM | CN1CCC2(Cc3cnc(Nc4ccc(N5CCNCC5)cn4)nc3N2C2CCCC2)C1=O (stereo not drawn) [Compound C19, 7′-cyclopentyl-1-methyl-2′-((5-(piperazin-1-yl)pyridin-2-yl)amino)-5′,7′-dihydrospiro[pyrrolidine-3,6′-pyrrolo[2,3-d]pyrimidin]-2-one] | 
26 | < 4.52 | > 30 µM | CN1CCN(c2ccc(Nc3ncc4c(n3)N(C3CCCC3)C3(CCCN(Cc5ccccc5)C3=O)C4)nc2)CC1 (stereo not drawn) [Compound C28, 1-benzyl-7′-cyclopentyl-2′-((5-(4-methylpiperazin-1-yl)pyridin-2-yl)amino)-5′,7′-dihydrospiro[piperidine-3,6′-pyrrolo[2,3-d]pyrimidin]-2-one] | 
